Results from patent publication US8354402B2, “Polyarylcarboxamides useful as lipid lowering agents” (Janssen Pharmaceutica N.V., priority 2000, dated 2013).
Counter-ions that a name gives are not always drawn.

The molecules below were run on ApoB secretion, HepG2 cells (assay: Quantification of the secretion of ApoB (HepG2 cells, immunoprecipitation, scintillation counting)). Details: 24 hours of incubation, listed as 37.
Assay type: cell-based
Method: C.1. Quantification of the Secretion of ApoB
HepG2 cells were cultured in 24-well plates in Minimal Essential Medium Rega 3 containing 10% fetal calf serum. Rega 3 has the following composition: CaCl2 (264 μg/ml), KCl (400 μg/ml), MgSO4.7H2O (200 μg/ml), NaCl (6800 μg/ml), NaHCO3 (850 μg/ml), NaH2PO4.H2O (158 μg/ml), D-glucose (1000 μg/ml), phenol red (10 μg/ml), L-alanine (8.9 μg/ml), L-arginine HCl (12 μg/ml), L-asparagine.H2O (15 μg/ml), L-aspartic acid (13.3 μg/ml), L-cystine (24 μg/ml), L-glutamic acid (14.7 μg/ml), glycine (7.5 μg/ml), L-histidine.HCl .H2O (42 μg/ml), L-isoleucine (52 μg/ml), L-leucine (52 μg/ml), L-lysine.HCl (72.5 μg/ml), L-methionine (15 μg/ml), L-phenylalanine (32 μg/ml), L-proline (11.5 μg/ml), L-serine (10.5 μg/ml), L-threonine (48 μg/ml), L-tryptophan (10 μg/ml), L-tyrosine (36 μg/ml), L-valine (46 μg/ml), D-Ca pantothenate (1 μg/ml), choline chloride (1 μg/ml), folic acid (1 μg/ml), 1-enositol (2 μg/ml), nicotinamide (1 μg/ml), pyridoxal HCl (1 μg/ml), riboflavin (0.1 μg/ml) and thiamine HCl (1 μg/ml).
At 70% confluency, the medium was changed and the test compound or carrier (dimethylsulfoxide, 0.4% final concentration) was added. After 24 hours of incubation, the medium was transferred to Eppendorf tubes and cleared by centrifugation. A sheep antibody directed against either apo B was added to the supernatant and the mixture was kept at 8° C. for 24 hours. Then, rabbit anti-sheep antibody was added and the immune complex was allowed to precipitate for 24 hours at 8° C. The immunoprecipitate was pelleted by centrifugation for 25 minutes at 1320 g and washed twice with a buffer containing 40 mM 4-morpholinepropanesulfonic acid, 40 mM NaH2PO4, 100 mM NaF, 0.2 mM dithiothreitol, 5 mM ethylenediamine tetraacetic acid, 5 mM ethylenebis (oxyethylenenitrilo) tetraacetic acid, 1% Triton-X-100, 0.5% sodium deoxycholate, 0.1% sodium dodecylsulphate, 0.2 μM leupeptin and 0.2 μM phenylmethylsulphonylfluoride. Radioactivity in the pellet was quantified by liquid scintillation counting.
Resulting IC50 values are enumerated in Table C.1 for a number of compounds No. 1 to No. 123.
`COC(=O)C(c1ccccc1)C1CCN(c2ccc(NC(=O)c3ccccc3-c3ccc(C(F)(F)F)cc3)cc2)CC1` (stereo not drawn) [Co. No. 37, methyl α-phenyl-1-[4-[[[4′-(trifluoromethyl)[1,1′-biphenyl]-2-yl]carbonyl]amino]phenyl]-4-piperidineacetate trifluoroacetate (1:1)] was tested, and the pIC50 was 7.507.

Same assay, conditions: Homo sapiens, 24 hours of incubation
With `COC(=O)N(c1ccccc1)C1CCN(c2ccc(NC(=O)c3ccccc3-c3ccc(C(F)(F)F)cc3)cc2)CC1` [Co. No. 251] the IC50 was 0.00964 µM. `CCCNC(=O)C(c1ccccc1)C1CCN(c2ccc(NC(=O)c3ccccc3-c3ccc(C(F)(F)F)cc3)cc2)CC1` (stereo not drawn) [Co. No. 38, N-[4-[4-[2-oxo-1-phenyl-2-(propylamino)ethyl]-1-piperidinyl]phenyl]-4′-(trifluoromethyl)-[1,1′-biphenyl]-2-carboxamide trifluoroacetate (1:1)] showed an IC50 of 0.00662 µM.

Same assay, conditions: Homo sapiens, HepG2, 24 h, 24 hours of incubation
`Cc1ccc(-c2ccccc2C(=O)Nc2ccc(N3CCC(C(C(=O)Nc4ccccc4)c4ccccc4)CC3)cc2)cc1` (stereo not drawn) [Co. No. 117] showed an IC50 of 0.121 µM. Work on `O=C(Nc1ccc(C2CCN(C(C(=O)NCc3ccccc3)c3ccccc3)CC2)cc1)c1ccccc1-c1ccc(C(F)(F)F)cc1` (stereo not drawn) [Co. No. 79] yielded an IC50 of 0.05 µM. `COC(=O)C(c1ccccc1)N1CCN(c2ccc(NC(=O)c3cccc(C)c3-c3ccc(C(F)(F)F)cc3)cc2)CC1` (stereo not drawn) [Co. No. 190] showed an IC50 of 0.00641 µM. Work on `Cc1cccc(-c2ccccc2C(=O)Nc2ccc(N3CCC(C(C(=O)Nc4ccccc4)c4ccccc4)CC3)cc2)c1` (stereo not drawn) [Co. No. 112] yielded an IC50 of 0.434 µM. Work on `O=C(Nc1ccc(C2CCN(C(C(=O)NCc3cccnc3)c3ccccc3)CC2)cc1)c1ccccc1-c1ccc(C(F)(F)F)cc1` (stereo not drawn) [Co. No. 76] yielded an IC50 of 0.0518 µM. `COC(=O)C(c1ccccc1)N1CCN(c2ccc(NC(=O)c3c(C)cccc3-c3ccc(C(F)(F)F)cc3)cc2)CC1` (stereo not drawn) [Co. No. 188] was tested, and the IC50 was 0.01 µM. `CCCNC(=O)C(c1ccccc1)C1CCN(c2ccc(NC(=O)c3ccccc3Oc3ccccc3)cc2)CC1` (stereo not drawn) [Co. No. 19] was tested, and the IC50 was 0.264 µM. For `O=C(Nc1ccc(N2CCN(C(C(=O)Nc3ccccc3)c3ccccc3)CC2)cc1)c1ccccc1-c1ccccc1` (stereo not drawn) [Co. No. 145], the IC50 was 0.185 µM. `COC(=O)C(c1ccccc1)C1CCN(c2ccc(NC(=O)c3ccccc3-c3ccc(CC(C)C)cc3)cc2)CC1` (stereo not drawn) [Co. No. 233] was tested, and the IC50 was under 0.03 µM. `CCNC(=O)C(c1ccccc1)C1CCN(c2ccc(NC(=O)c3ccccc3-c3cccc(Cl)c3)cc2)CC1` (stereo not drawn) [Co. No. 86] showed an IC50 of 0.0841 µM. With `CCOC(=O)C(c1ccccc1)C1CCN(c2ccc(NC(=O)c3ccccc3-c3ccc(C(F)(F)F)cc3)cc2)CC1` (stereo not drawn) [Co. No. 243] the IC50 was under 0.03 µM. With `CC(C)NC(=O)C(c1ccccc1)C1CCN(c2ccc(NC(=O)c3cccc4c3Cc3ccccc3-4)cc2)CC1` (stereo not drawn) [Co. No. 23] the IC50 was at least 3 µM. `COC(=O)C(c1ccccc1)N1CCN(c2cc(F)c(NC(=O)c3ccccc3-c3ccc(C(F)(F)F)cc3)c(F)c2)CC1` (stereo not drawn) [Co. No. 204] showed an IC50 of 0.428 µM. For `O=C(Nc1ccc(C2CCN(C(C(=O)OCc3ccccc3)c3ccccc3)CC2)cc1)c1ccccc1-c1ccc(C(F)(F)F)cc1` (stereo not drawn) [Co. No. 151], the IC50 was 0.612 µM. For `O=C(Nc1ccc(N2CCC(C(C(=O)Nc3ccccc3)c3ccccc3)CC2)cc1)c1ccccc1-c1ccc2ccccc2c1` (stereo not drawn) [Co. No. 138], the IC50 was 0.0993 µM. `CCCNC(=O)C(c1ccccc1)C1CCN(c2ccc(NC(=O)c3ccccc3-c3cccc(Cl)c3)cc2)CC1` (stereo not drawn) [Co. No. 82] gave an IC50 of 0.0975 µM. For `O=C(Nc1ccc(N2CCC(C(C(=O)OCc3ccccc3)c3ccccc3)CC2)cc1)c1ccccc1-c1ccc(C(F)(F)F)cc1` (stereo not drawn) [Co. No. 174], the IC50 was 0.0923 µM. Work on `CCNC(=O)C(c1ccccc1)N1CCN(c2ccc(N(C)C(=O)c3ccccc3-c3ccc(C(F)(F)F)cc3)cc2)CC1` (stereo not drawn) [Co. No. 182] yielded an IC50 of 0.00762 µM. For `O=C(Nc1ccc(N2CCC(C(C(=O)Nc3ccccc3)c3ccccc3)CC2)cc1)c1ccccc1Cc1ccccc1` (stereo not drawn) [Co. No. 35], the IC50 was at least 3 µM. `O=C(Nc1ccc(N2CCC(C(C(=O)Nc3ccccc3)c3ccccc3)CC2)cc1)c1ccccc1OCc1ccccc1` (stereo not drawn) [Co. No. 33] gave an IC50 of at least 3 µM. Work on `CCNC(=O)C(c1ccccc1)N1CCN(c2ccc(NC(=O)c3ccccc3-c3ccc(C(F)(F)F)cc3)c(Cl)c2)CC1` (stereo not drawn) [Co. No. 214] yielded an IC50 of under 0.03 µM. For `COC(=O)C(c1ccc(Cl)cc1)N1CCN(c2ccc(NC(=O)c3ccccc3-c3ccc(C(F)(F)F)cc3)cc2)CC1` (stereo not drawn) [Co. No. 263], the IC50 was 0.279 µM. For `O=C(Nc1ccc(C2CCN(C(C(=O)Nc3ccccc3)c3ccccc3)CC2)cc1)c1ccccc1-c1ccc(C(F)(F)F)cc1` (stereo not drawn) [Co. No. 80], the IC50 was 0.356 µM. For `O=C(Nc1ccc(C2=CCN(C(C(=O)NCc3ccccc3)c3ccccc3)CC2)cc1)c1ccccc1-c1ccccc1` (stereo not drawn) [Co. No. 166], the IC50 was 0.036 µM. Molecule `CCCNC(=O)C(c1ccccc1)C1CCN(c2ccc(NC(=O)c3ccccc3-c3ccc(Cl)c(Cl)c3)cc2)CC1` (stereo not drawn) [Co. No. 83] has an IC50 of 0.0433 µM. In the case of `O=C(Nc1ccc(C2CCN(C(C(=O)NCC(F)(F)F)c3ccccc3)CC2)cc1)c1ccccc1-c1ccc(C(F)(F)F)cc1` (stereo not drawn) [Co. No. 78], the IC50 is reported as 0.0325 µM. Molecule `COC(=O)C(c1ccccc1)N1CCN(c2ccc(NC(=O)c3ccccc3-c3ccc(C(F)(F)F)cc3)cc2C)CC1` (stereo not drawn) [Co. No. 211] has an IC50 of 0.0199 µM. For `COC(=O)C(c1ccccc1)N1CCN(c2ccc(NC(=O)c3ccccc3-c3ccc(C(F)(F)F)cc3)c(C)c2)CC1` (stereo not drawn) [Co. No. 208], the IC50 was 0.00748 µM. `CCCNC(=O)C(c1ccccc1)C1CCN(c2ccc(NC(=O)c3ccccc3-c3cccc(N)c3)cc2)CC1` (stereo not drawn) [Co. No. 133] showed an IC50 of over 3 µM. With `COc1ccc(-c2ccccc2C(=O)Nc2ccc(N3CCC(C(C(=O)Nc4ccccc4)c4ccccc4)CC3)cc2)cc1` (stereo not drawn) [Co. No. 116] the IC50 was 0.385 µM. `COC(=O)C(c1ccccc1)N1CCCN(c2ccc(NC(=O)c3ccccc3-c3ccc(C(F)(F)F)cc3)cc2)CC1` (stereo not drawn) [Co. No. 119] showed an IC50 of 0.175 µM. Molecule `O=C(Nc1ccc(N2CCC(C(C(=O)OCCCc3ccccc3)c3ccccc3)CC2)cc1)c1ccccc1-c1ccc(C(F)(F)F)cc1` (stereo not drawn) [Co. No. 246] has an IC50 of 0.173 µM. For `CCNC(=O)C(c1ccccc1)C1CCN(c2ccc(NC(=O)c3ccccc3-c3ccccc3)cc2)CC1` (stereo not drawn) [Co. No. 180], the IC50 was 0.114 µM. In the case of `O=C(Nc1ccc(N2CCC(C(C(=O)NCc3ccccc3)c3ccccc3)CC2)cc1)c1ccccc1-c1ccc(Cl)cc1` (stereo not drawn) [Co. No. 100], the IC50 is reported as 0.0116 µM. Molecule `O=C(Nc1ccc(N2CCC(C(C(=O)NCc3ccccc3)c3ccccc3)CC2)cc1)c1ccccc1-c1cccc(C(F)(F)F)c1` (stereo not drawn) [Co. No. 105] has an IC50 of 0.0906 µM. With `CCCNC(=O)C(c1ccccc1)C1CCN(c2ccc(NC(=O)c3ccccc3-c3ccc(F)cc3F)cc2)CC1` (stereo not drawn) [Co. No. 84, 2′,4′-difluoro-N-[4-[4-[2-oxo-1-phenyl-2-(propylamino)ethyl]-1-piperidinyl]phenyl]-[1,1′-biphenyl]-2-carboxamide] the IC50 was 0.0794 µM. With `O=C(Nc1ccc(N2CCC(C(C(=O)OCc3ccccc3)c3ccccc3)CC2)cc1)c1ccccc1-c1ccccc1` (stereo not drawn) [Co. No. 177] the IC50 was 0.261 µM. In the case of `O=C(Nc1ccc(N2CCC(C(C(=O)Nc3ccccc3)c3ccccc3)CC2)cc1)c1ccccc1-c1ccccc1C(F)(F)F` (stereo not drawn) [Co. No. 109], the IC50 is reported as 1.47 µM. In the case of `CCCNC(=O)C(c1ccccc1)N1CCC(c2ccc(NC(=O)c3ccccc3-c3ccc(C(F)(F)F)cc3)cc2)CC1` (stereo not drawn) [Co. No. 70], the IC50 is reported as at most 0.03 µM. `CCCNC(=O)C(c1ccccc1)C1CCN(c2ccc(NC(=O)c3ccccc3-c3ccccc3C)cc2)CC1` (stereo not drawn) [Co. No. 131] showed an IC50 of 0.417 µM. In the case of `CC(C)NC(=O)C(c1ccccc1)N1CCN(c2ccc(NC(=O)c3ccccc3-c3ccc(C(F)(F)F)cc3)cc2)CC1` (stereo not drawn) [Co. No. 56], the IC50 is reported as at most 0.03 µM. For `COC(=O)C(c1ccccc1)N1CCC(c2ccc(NC(=O)c3ccccc3-c3ccccc3)cc2)CC1` (stereo not drawn) [Co. No. 143], the IC50 was 0.234 µM. In the case of `O=C(Nc1ccc(N2CCC(C(C(=O)NCc3ccccc3)c3ccccc3)CC2)cc1)c1ccccc1OCc1ccccc1` (stereo not drawn) [Co. No. 8], the IC50 is reported as 0.0601 µM. `CC(C)CCOC(=O)C(c1ccccc1)N1CCC(c2ccc(NC(=O)c3ccccc3-c3ccc(C(F)(F)F)cc3)cc2)CC1` (stereo not drawn) [Co. No. 227] gave an IC50 of 0.187 µM. `CCCNC(=O)C(c1ccccc1)C1CCN(c2ccc(NC(=O)c3ccccc3COc3ccccc3)cc2)CC1` (stereo not drawn) [Co. No. 17] gave an IC50 of 0.199 µM. Molecule `COC(=O)C(c1ccccc1)N1CCN(c2ccc(NC(=O)c3ccccc3-c3ccc(C(F)(F)F)cc3)c(F)c2)CC1` (stereo not drawn) [Co. No. 212] has an IC50 of under 0.03 µM. For `Nc1cccc(-c2ccccc2C(=O)Nc2ccc(N3CCC(C(C(=O)NCc4ccccc4)c4ccccc4)CC3)cc2)c1` (stereo not drawn) [Co. No. 98], the IC50 was 0.0579 µM. Molecule `COC(=O)C(c1ccccc1)N1CCN(c2ccc(NC(=O)c3cc(OC)ccc3-c3ccc(C(F)(F)F)cc3)cc2)CC1` (stereo not drawn) [Co. No. 186] has an IC50 of 0.2 µM.
